Patent publication EP0104300A1, “Diazolyl alkanoles, process for their preparation and their use as antimycotic agents” (BAYER AG, priority 1982, dated 1984)

System: Candida-Zellen
Assay: Antimycotic in-vivo efficacy (oral) in mouse candidosis
Set-up: species or system Mäuse vom Typ SPF-CF1; key: +++++: sehr gute Wirkung = 90 % Ueberlebende am 6.Tag p.i.; ++++: gute Wirkung = 80 % Ueberlebende am 6 Tag p.i.; +++: Wirkung = 60 % Ueberlebende am 6. Tag p.i.; ++: schwache Wirkung = 40 % Ueberlebende am 6.Tag p.i.; +: Spur Wirkung =; k.W.: keine Wirkung
Conditions: mice infected i.v. with 1 - 2 x 10^6 Candida cells; oral treatment with 50 - 100 mg/kg each, 1 h before and 7 h after infection; survivors on day 6 p.i.
Experimental: Antimykotische in-vivo-Wirksamkeit (oral) bei Mäusecandidose Versuchsbeschreibun:
Mäuse vom Typ SPF-CF1 wurden intravenös mit 1 - 2 x 10^6 logarithmisch wachsenden Candida-Zellen, die in physiologischer Kochsalzlösung suspendiert werden, infiziert. Eine Stunde vor und sieben Stunden nach der Infektion werden die Tiere mit jeweils 50 - 100 mg/kg Körpergewicht der Präparate oral behandelt.
Unbehandelte Tiere starben 3 bis 6 Tage post infektionem. Die Ueberlebensrate am 6.Tag post infektionem betrug bei unbehandelten Kontrolltieren etwa 5 %. In diesem Test zeigten z.B. die erfindungsgemäßen Verbindungen eine bessere Wirkung als die aus dem Stand der Technik bekannten Verbindungen 1 und 3.
+++++ = sehr gute Wirkung = 90 % Ueberlebende am 6.Tag p.i. ++++ = gute Wirkung = 80 % Ueberlebende am 6 Tag p.i. +++ = Wirkung = 60 % Ueberlebende am 6. Tag p.i. ++ = schwache Wirkung = 40 % Ueberlebende am 6.Tag p.i. + = Spur Wirkung = k.W. = keine Wirkung

OC(C#Cc1ccc(Cl)cc1)(Cn1cncn1)Cn1cncn1 [Beispiel 3] was tested, and the Wirkung was “+++++ (sehr gute Wirkung = 90 % Ueberlebende am 6.Tag p.i.)”.

With OC(C#Cc1ccccc1)(Cn1cncn1)Cn1cncn1 [Beispiel 1, 3-Hydroxy-1-phenyL-4-(1,2,4-triazol-1-yl)-3-(1,2,4-triazol-1-yl-methyl)-1-butin] the Wirkung was “+++ (Wirkung = 60 % Ueberlebende am 6. Tag p.i.)”.

For OC(Cc1ccc(Cl)cc1Cl)(Cn1ccnc1)c1ccc(-c2ccccc2)cc1 (centres unmarked) [(A), 2-(4-Biphenylyl)-1-(2,4-dichlorphenyl)-3-(imidazoL-1-yL)-2-propanoL], the Wirkung was “k.W”.

For CC(C)(C)C(O)(COc1ccc(Cl)cc1)Cn1ccnc1 (centres unmarked) [(B), 2-(4-Chlorphenoxymethyl)-3,3-dimethyl-1-(imidazol-1-yl)-butan-2-ol], the Wirkung was “k.W”.

Cc1ccccc1OCC(O)(Cn1ccnc1)C(C)(C)C (centres unmarked) [(C)] was tested, and the Wirkung was “k.W”.
